≈ marks a conversion by molar mass, not a printed value.
Key:
[1] = 50 mg/mL elraglusib solutions in 12 Vehicle Variants, HPLC with and without syringe filtration; type: physicochemical; conditions: no precipitation or haziness, no visible particulates
Description: An initial study prepared 50 mg/mL elraglusib solutions in 12 Vehicle Variants.
Each Vehicle Variant was made to 50 mg/mL with elraglusib and was tested (with and without syringe filtration) with respect to: (1) elraglusib main peak Area %, (2) related substance RRT 0.96 Area %, and (3) related Substance Area % RRT 0.97.

[2] = Quantitative solubility by HPLC in organic solvents and surfactants; type: physicochemical; conditions: for solubility: thermodynamic from solid, read-out: Solubility (n = 2) by HPLC
Excerpt: The HPLC method 1 was used for solubility, stability monitoring at 438 nm, and drug loading measurements of the ASD is summarized in Table 2A-31 and the HPLC method 2 was used for stability monitoring at 210 nm, which is summarized in Table 2A-32.

[3] = Elra:PVAP and Elra:CAP ASD stability study (XRPD, mDSC, TGA, HPLC, ssNMR); type: physicochemical; conditions: crystallinity marker peak of API
Description: Both ASDs stored remained amorphous up to 12 weeks storage under the above-mentioned conditions (FIG. 21). The mDSC of the stability samples was carried out in a hermetically sealed pan without any pin hole, to determine the Tg in the presence of residual solvent or moisture (i.e., wet Tg).
An HPLC chromatogram was also obtained using HPLC monitored at 210 nm for a sample stored for 12 weeks at different conditions.
The first derivative was applied to the stability sample spectra (FIGS. 25-29). For pure amorphous samples, ssNMR produces gaussian curves that when applied to first derivative become a flat baseline. Crystalline material produces Laplacian curves by ssNMR which can be clearly observed after applying the first derivative.
Signal to noise ratio of API reference was 8.18. In all four stability samples, the signal to noise ratio for the first derivative peak at 87 ppm remained <2.
Solid-state NMR experiments were performed on a 2 channel Bruker NEO spectrometer (Bruker, Billerica, MA) operating at 100.52 MHz for 13C and 399.71 MHz for 1H. A Chemagnetics APEX probe, refitted with a 7 mm magic angle spinning module (Revolution NMR, Fort Collins, CO) was used to acquire the data. Each sample was packed into a 7 mm zirconia rotor with Kel-F spacers. The magic angle spinning (MAS) frequency that was used to acquire all of the data was 5 kHz. […]

in vivo = experiment: in vivo; parameters: species or system Beagle dogs; conditions: male, Beagle, dog; for AUC(0-inf): AUCINF; for AUC(0-t): AUClast
Description: The objective of this study was to evaluate the pharmacokinetic profile of elraglusib following single oral and intravenous doses in Beagle dogs.
The test article (elraglusib in a vehicle of 85% PEG400, 10% ethanol, 5% water (all components are weight/weight/weight)) was administered orally and via intravenous infusion to dogs according to the tables below.
Male Beagle dogs were selected for use in this study. Animals were at least 6 months old and males weighed approximately 9.3-10.8 kilograms at the start of dosing.
The study animals received a single oral dose of elraglusib followed by an approximate 7-day washout period after which they received a single intravenous infusion of elraglusib. Animals underwent standard evaluations such as body weight and clinical observations, and were bled for pharmacokinetics following each dose.
Plasma concentrations of elraglusib were determined for dogs treated with 20 mg/kg elraglusib via oral administration on Day 1 and then again via intravenous infusion on Day 8. […] Individual plasma concentrations were highest approximately 2-8 hours after oral administration (1,410-1,880 ng/mL), and highest at approximately 5 minutes following intravenous administration (11,800-13,600 ng/mL).

[4] = Solubility of elraglusib in simulated intestinal fluid; type: physicochemical
Description: Solubility of elraglusib in simulated intestinal fluid with varying levels of SIF powder was measured to support formulation development, facilitate interpretation of in vitro dissolution, and support potential modeling and interpretation of in vivo pharmacokinetic data. The obtained solubility data are shown in Table 6-19 and is generally aligned with data previously collected for elraglusib.

[5] = Solubility of elraglusib in acetone, acetone:water and THF with and without polymers (24 h, visual and HPLC); type: physicochemical

Cn1cc(C2=C(c3coc4ccc(F)cc34)C(=O)NC2=O)c2cc3c(cc21)OCO3 [elraglusib, 3-(5-fluorobenzofuran-3-yl)-4-(5-methyl-5H-[1,3]dioxolo[4,5-f]indol-7-yl)-1H-pyrrole-2,5-dione]
solubility in Vehicle Variants (visual) [1]: remained soluble at 50 mg/mL
solubility ([2]; DCM, no surfactant, organic solvent or mixture): 15.1 mg/mL (≈ 37.3 mM)
solubility ([2]; H2O with Kolliphor EL 10% w/v, aqueous with cosolvent or surfactant or cyclodextrin, H2O, Kolliphor EL 10% w/v): 0.12 mg/mL (≈ 0.297 mM)
solubility ([2]; H2O with Labrasol 10% w/v, aqueous with cosolvent or surfactant or cyclodextrin, H2O, Labrasol 10% w/v): 0.16 mg/mL (≈ 0.396 mM)
solubility ([2]; H2O with Tween 80 10% w/v, aqueous with cosolvent or surfactant or cyclodextrin, H2O, Tween 80 10% w/v): 0.24 mg/mL (≈ 0.594 mM)
solubility ([2]; THF (with stabilizer BHT), no surfactant, organic solvent or mixture): 25.3 mg/mL (≈ 62.5 mM)
solubility ([2]; THF with Kolliphor HS 15 10% w/v, organic solvent or mixture, THF, Kolliphor HS 15 10% w/v): 47.6 mg/mL (≈ 118 mM)
solubility ([2]; THF with Labrasol 10% w/v, organic solvent or mixture, THF, Labrasol 10% w/v): 52.3 mg/mL (≈ 129 mM)
solubility ([2]; THF with Poloxamer P188 10% w/v, organic solvent or mixture, THF, Poloxamer P188 10% w/v): 49.8 mg/mL (≈ 123 mM)
solubility ([2]; THF with TPGS 10% w/v, organic solvent or mixture, THF, TPGS 10% w/v): 46.8 mg/mL (≈ 116 mM)
solubility ([2]; THF with Tween 80 10% w/v, organic solvent or mixture, THF, Tween 80 10% w/v): 49.8 mg/mL (≈ 123 mM)
Solubility (n = 2) by HPLC ([2]; THF, Kolliphor EL 10% w/v): 48.0 mg/mL (≈ 119 mM)
Solubility (n = 2) by HPLC ([2]; THF, no surfactant): 52.7 mg/mL (≈ 130 mM)
solubility ([2]; THF:H2O (90:10) with Labrasol 10% w/v, organic solvent or mixture, THF:H2O (90:10), Labrasol 10% w/v): 54.8 mg/mL (≈ 136 mM)
Solubility (n = 2) by HPLC ([2]; THF:H2O (90:10), no surfactant): 61.2 mg/mL (≈ 151 mM)
solubility ([2]; acetone, no surfactant, organic solvent or mixture): 13 mg/mL (≈ 32.2 mM)
solubility ([2]; organic solvent or mixture, DCM:Acetone (1:1), no surfactant): 19.8 mg/mL (≈ 49 mM)
solubility ([2]; organic solvent or mixture, DCM:Acetone (5:1), no surfactant): 24.5 mg/mL (≈ 60.5 mM)
solubility ([2]; organic solvent or mixture, DCM:EtOH (1:1), no surfactant): 16.4 mg/mL (≈ 40.6 mM)
solubility ([2]; organic solvent or mixture, DCM:MeOH (8:2), no surfactant): 11.8 mg/mL (≈ 29.1 mM)
ssNMR Signal to Noise (87-96 ppm), first derivative spectra [3]: 8.18
bioavailability (in vivo): 31%
AUClast, IV versus PO (in vivo; 20 mg/kg): approximately 3 fold
AUC (in vivo; iv, 20 mg/kg): 68900 ng·h/mL
highest individual plasma concentrations (in vivo; iv, 20 mg/kg): 11,800-13,600 ng/mL
time of highest individual plasma concentrations (in vivo; iv, 20 mg/kg): approximately 5 minutes
AUC(0-inf) (in vivo; iv, 20 mg/kg): 72800 ng·h/mL
AUC(0-t) (in vivo; iv, 20 mg/kg): 68900 ng·h/mL
Cmax (in vivo; iv, 20 mg/kg): 12800 ng/mL
Tmax (in vivo; iv, 20 mg/kg, Tmax): 4.98 min
half-life (in vivo; iv, 20 mg/kg, t1/2): 6.05 h
AUC (in vivo; po, 20 mg/kg): 21300 ng·h/mL
highest individual plasma concentrations (in vivo; po, 20 mg/kg): 1,410-1,880 ng/mL
time of highest individual plasma concentrations (in vivo; po, 20 mg/kg): 2 to 8 h
AUC(0-inf) (in vivo; po, 20 mg/kg): 22600 ng·h/mL
AUC(0-t) (in vivo; po, 20 mg/kg): 21300 ng·h/mL
Cmax (in vivo; po, 20 mg/kg): 1670 ng/mL
Average Concentration, 2 hour ([4]; 0.01N HCl, initial pH 2, [NaTC] 0 mM, 2 hour): 2.1 µg/mL
Average Concentration, 24 hour ([4]; 0.01N HCl, initial pH 2, [NaTC] 0 mM): 1.4 µg/mL
Average Concentration, 2 hour ([4]; 0.5% Simulated Intestinal Fluid (SIF), initial pH 6.5, [NaTC] 6.7 mM, 2 hour): 6.0 µg/mL
Average Concentration, 24 hour ([4]; 0.5% Simulated Intestinal Fluid (SIF), initial pH 6.5, [NaTC] 6.7 mM): 4.7 µg/mL
Average Concentration, 2 hour ([4]; 2% SIF, initial pH 6.5, [NaTC] 26.8 mM, 2 hour): 17.0 µg/mL
Average Concentration, 24 hour ([4]; 2% SIF, initial pH 6.5, [NaTC] 26.8 mM): 17.3 µg/mL
Average Concentration, 2 hour ([4]; Blank FaSSIF, initial pH 6.5, [NaTC] 0 mM, 2 hour): 2.5 µg/mL
Average Concentration, 24 hour ([4]; Blank FaSSIF, initial pH 6.5, [NaTC] 0 mM): 2.6 µg/mL
Average Concentration, 2 hour ([4]; Blank FeSSIF, initial pH 5, [NaTC] 0 mM, 2 hour): 2.4 µg/mL
Average Concentration, 24 hour ([4]; Blank FeSSIF, initial pH 5, [NaTC] 0 mM): 2.6 µg/mL
Average Concentration, 24 hour ([4]; FaSSIF, initial pH 6.5, [NaTC] 3 mM): 5.7 µg/mL
solubility ([4]; FaSSIF, pH 6.5, fassif, thermodynamic from solid, read-out: measured solubility of crystalline elraglusib): 0.0057 mg/mL (≈ 0.0141 mM)
Average Concentration, 2 hour ([4]; FeSSIF, initial pH 5, [NaTC] 15 mM, 2 hour): 8.4 µg/mL
Average Concentration, 24 hour ([4]; FeSSIF, initial pH 5, [NaTC] 15 mM): 11.6 µg/mL
pH dependence of equilibrium solubility ([4]; simulated intestinal fluid): essentially independent of pH
solubility thermodynamic at 2 h ([4]; thermodynamic from solid, FaSSIF, initial pH 6.5, [NaTC] 3 mM, 2 hour, read-out: Average Concentration, 2 hour): 0.0052 mg/mL (≈ 0.0129 mM)
measured concentration by HPLC ([5]; THF solution, 24 hours (theoretical 37 mg/mL)): 34.68 mg/mL
time remaining soluble ([5]; tetrahydrofuran (THF)): over 24 hours
